Laboratory results: patent US8859584B2, “TRPV1 antagonists” (AbbVie Inc., priority 2011, dated 2014)

Experiments:
human TRPV1 [1] = biological target: T1, human TRPV1 (Homo sapiens, UniProt Q8NER1); assay: Capsaicin Activation Assay (FLIPR intracellular Ca2+, recombinant HEK293 cells); type: cell-based; conditions: recombinant HEK293 cells expressing hTRPV1; 50 nM capsaicin; read-out: human TRPV1 capsaicin IC50
T1 construct: expressed in transfected cells

human TRPV1 [2] = biological target: T1, human TRPV1; assay: Acid Activation Assay (pH 5.0, FLIPR intracellular Ca2+, recombinant HEK293 cells); type: cell-based; conditions: percentage of maximal pH 5.0-induced response remaining; HEK293 hTRPV1; max concentration 37.5 μM
Procedure, shortened: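 HEK293 cells stably expressing recombinant hTRPV1 were loaded with calcium dye for 90-120 min at 25° C and pre-treated with compound for 3 min before a pH 5.0 (DPBS/MES) challenge. Peak FLIPR fluorescence over baseline is given as percentage of the maximal pH 5.0-induced response.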

T1 sequence (Q8NER1 whole entry): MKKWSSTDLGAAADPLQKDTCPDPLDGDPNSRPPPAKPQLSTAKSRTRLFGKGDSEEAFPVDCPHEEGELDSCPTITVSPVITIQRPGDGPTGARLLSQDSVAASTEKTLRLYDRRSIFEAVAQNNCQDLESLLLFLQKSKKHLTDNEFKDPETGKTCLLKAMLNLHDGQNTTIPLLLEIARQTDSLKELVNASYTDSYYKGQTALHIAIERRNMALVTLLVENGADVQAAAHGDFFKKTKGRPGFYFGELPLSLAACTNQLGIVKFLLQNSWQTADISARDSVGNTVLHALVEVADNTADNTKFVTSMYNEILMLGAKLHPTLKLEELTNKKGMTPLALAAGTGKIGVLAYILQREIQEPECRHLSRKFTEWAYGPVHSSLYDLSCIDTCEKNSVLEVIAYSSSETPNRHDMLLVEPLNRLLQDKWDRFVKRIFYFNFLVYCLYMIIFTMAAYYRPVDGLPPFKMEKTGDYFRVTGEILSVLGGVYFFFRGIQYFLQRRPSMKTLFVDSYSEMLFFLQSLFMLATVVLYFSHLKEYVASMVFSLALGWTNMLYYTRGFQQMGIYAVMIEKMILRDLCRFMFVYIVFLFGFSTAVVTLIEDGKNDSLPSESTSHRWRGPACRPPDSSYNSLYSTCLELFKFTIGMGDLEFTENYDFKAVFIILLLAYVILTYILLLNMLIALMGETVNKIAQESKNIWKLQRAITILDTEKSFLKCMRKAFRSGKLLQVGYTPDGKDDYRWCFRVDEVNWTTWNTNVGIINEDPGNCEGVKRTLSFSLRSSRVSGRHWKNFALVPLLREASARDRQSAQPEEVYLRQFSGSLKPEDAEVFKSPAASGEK

Molecule	IC50 (human TRPV1 [1])	human TRPV1 H+ (max % remain) (human TRPV1 [2])
O=C(Nc1cccc2c1C[C@@H](O)C2)N[C@H]1CC2(CCC2)Oc2ccc(F)cc21 [Example 102, 1-[(4S)-6-fluoro-3,4-dihydrospiro[chromene-2,1′-cyclobutan]-4-yl]-3-[(2S)-2-hydroxy-2,3-dihydro-1H-inden-4-yl]urea]	2800 nM	63%
O=C(Nc1cccc2c1C[C@H](O)C2)N[C@@H]1COc2ccc(Cl)cc2C1 [Example 27, 1-[(3S)-6-chloro-3,4-dihydro-2H-chromen-3-yl]-3-[(2R)-2-hydroxy-2,3-dihydro-1H-inden-4-yl]urea]	97 nM	11%
O=C(Nc1cccc2c1C[C@H](O)C2)N[C@@H]1CC2(CCC2)Oc2ccccc21 [Example 22, 1-[(4R)-3,4-dihydrospiro[chromene-2,1′-cyclobutan]-4-yl]-3-[(2R)-2-hydroxy-2,3-dihydro-1H-inden-4-yl]urea]	78 nM	73%
CC1(C)C[C@@H](NC(=O)Nc2cccc3c2C[C@@H](O)C3)c2ccc(C(F)(F)F)cc2O1 [Example 77, 1-[(4R)-2,2-dimethyl-7-(trifluoromethyl)-3,4-dihydro-2H-chromen-4-yl]-3-[(2S)-2-hydroxy-2,3-dihydro-1H-inden-4-yl]urea]	12 nM	1%
O=C(Nc1cccc2c1C[C@H](O)C2)N[C@@H]1CC(CF)(CF)Oc2c1ccc(Cl)c2F [Example 11, 1-[(4R)-7-chloro-8-fluoro-2,2-bis(fluoromethyl)-3,4-dihydro-2H-chromen-4-yl]-3-[(2R)-2-hydroxy-2,3-dihydro-1H-inden-4-yl]urea]	56 nM	64%
1-[(4R)-7-fluoro-2,2-dimethyl-3,4-dihydro-2H-chromen-4-yl]-3-[(2R)-7-fluoro-2-hydroxy-2,3-dihydro-1H-inden-4-yl]urea [Example 158]	600 nM	48%
CC1(CF)C[C@@H](NC(=O)Nc2cccc3c2C[C@H](O)C3)c2ccc(Cl)cc2O1 (stereo partly drawn) [Example 67, 1-[(4R)-7-chloro-2-(fluoromethyl)-2-methyl-3,4-dihydro-2H-chromen-4-yl]-3-[(2R)-2-hydroxy-2,3-dihydro-1H-inden-4-yl]urea]	17 nM	72%
CC1(C)C[C@@H](NC(=O)Nc2cccc3c2C[C@H](O)C3)c2ccccc2O1 [Example 17, 1-[(4R)-2,2-dimethyl-3,4-dihydro-2H-chromen-4-yl]-3-[(2R)-2-hydroxy-2,3-dihydro-1H-inden-4-yl]urea]	240 nM	82%
CCC1(CC)C[C@@H](NC(=O)Nc2cccc3c2C[C@H](O)C3)c2ccc(OC(F)(F)F)cc2O1 [Example 60, 1-[(4R)-2,2-diethyl-7-(trifluoromethoxy)-3,4-dihydro-2H-chromen-4-yl]-3-[(2R)-2-hydroxy-2,3-dihydro-1H-inden-4-yl]urea]	52 nM	23%
O=C(Nc1cccc2c1C[C@H](O)C2)N[C@@H]1CC(CF)(CF)Oc2c(Cl)cccc21 [Example 2, 1-[(4R)-8-chloro-2,2-bis(fluoromethyl)-3,4-dihydro-2H-chromen-4-yl]-3-[(2R)-2-hydroxy-2,3-dihydro-1H-inden-4-yl]urea]	160 nM	80%
O=C(Nc1cccc2c1C[C@@H](O)C2)N[C@@H]1CC(CF)(CF)Oc2ccccc21 [Example 86, 1-[(4R)-2,2-bis(fluoromethyl)-3,4-dihydro-2H-chromen-4-yl]-3-[(2S)-2-hydroxy-2,3-dihydro-1H-inden-4-yl]urea]	1600 nM	46%
O=C(Nc1cccc2c1C[C@@H](O)C2)N[C@H]1CC(CF)(CF)Oc2cc(Cl)ccc21 [Example 98, 1-[(4S)-7-chloro-2,2-bis(fluoromethyl)-3,4-dihydro-2H-chromen-4-yl]-3-[(2S)-2-hydroxy-2,3-dihydro-1H-inden-4-yl]urea]	500 nM	13%
CC1(C)Oc2ccc(F)cc2CC1NC(=O)Nc1cccc2c1C[C@H](O)C2 (stereo partly drawn) [Example 91, 1-(6-fluoro-2,2-dimethyl-3,4-dihydro-2H-chromen-3-yl)-3-[(2R)-2-hydroxy-2,3-dihydro-1H-inden-4-yl]urea]	82 nM	78%
O=C(Nc1cccc2c1C[C@@H](O)C2)N[C@@H]1CCOc2c(OC(F)(F)F)cccc21 [Example 73, 1-[(2S)-2-hydroxy-2,3-dihydro-1H-inden-4-yl]-3-[(4R)-8-(trifluoromethoxy)-3,4-dihydro-2H-chromen-4-yl]urea]	25 nM	18%
CCCC1(CCC)C[C@@H](NC(=O)Nc2cccc3c2C[C@H](O)C3)c2cccc(F)c2O1 [Example 59, 1-[(4R)-8-fluoro-2,2-dipropyl-3,4-dihydro-2H-chromen-4-yl]-3-[(2R)-2-hydroxy-2,3-dihydro-1H-inden-4-yl]urea]	23 nM	99%
O=C(Nc1cccc2c1C[C@H](O)C2)N[C@@H]1CC2(CCC2)Oc2cc(C(F)(F)F)ccc21 [Example 42, 1-[(2R)-2-hydroxy-2,3-dihydro-1H-inden-4-yl]-3-[(4R)-7-(trifluoromethyl)-3,4-dihydrospiro[chromene-2,1′-cyclobutan]-4-yl]urea]	54 nM	20%
CC1(C)C[C@@H](NC(=O)Nc2cccc3c2C[C@H](O)C3)c2ccc(C(F)(F)F)cc2O1 [Example 3, 1-[(4R)-2,2-dimethyl-7-(trifluoromethyl)-3,4-dihydro-2H-chromen-4-yl]-3-[(2R)-2-hydroxy-2,3-dihydro-1H-inden-4-yl]urea]	27 nM	55%
CCC1(CC)C[C@@H](NC(=O)Nc2cccc3c2C[C@H](O)C3)c2cccc(F)c2O1 [Example 48, 1-[(4R)-2,2-diethyl-8-fluoro-3,4-dihydro-2H-chromen-4-yl]-3-[(2R)-2-hydroxy-2,3-dihydro-1H-inden-4-yl]urea]	24 nM	89%

Further lines, results first:

IC50 (human TRPV1 [1])	human TRPV1 H+ (max % remain) (human TRPV1 [2])	Molecule
3400 nM	50%	O=C(Nc1ccc(F)c2c1C[C@@H](O)C2)N[C@@H]1CC(CF)(CF)Oc2c(F)cc(F)cc21 [Example 162, 1-[(4R)-6,8-difluoro-2,2-bis(fluoromethyl)-3,4-dihydro-2H-chromen-4-yl]-3-[(2R)-7-fluoro-2-hydroxy-2,3-dihydro-1H-inden-4-yl]urea]
3200 nM	7%	CC1(C)C[C@@H](NC(=O)Nc2ccc(F)c3c2C[C@H](O)C3)c2ccccc2O1 [Example 145, 1-[(4R)-2,2-dimethyl-3,4-dihydro-2H-chromen-4-yl]-3-[(2S)-7-fluoro-2-hydroxy-2,3-dihydro-1H-inden-4-yl]urea]
3900 nM	5%	O=C(Nc1ccc(F)c2c1C[C@H](O)C2)N[C@@H]1CC(CF)(CF)Oc2ccc(F)cc21 [Example 141, 1-[(4R)-6-fluoro-2,2-bis(fluoromethyl)-3,4-dihydro-2H-chromen-4-yl]-3-[(2S)-7-fluoro-2-hydroxy-2,3-dihydro-1H-inden-4-yl]urea]
3100 nM	21%	CN1CC[C@@H](NC(=O)Nc2ccc(F)c3c2C[C@H](O)C3)c2ccc(C(F)(F)F)cc21 [Example 148, 1-[(2S)-7-fluoro-2-hydroxy-2,3-dihydro-1H-inden-4-yl]-3-[(4R)-1-methyl-7-(trifluoromethyl)-1,2,3,4-tetrahydroquinolin-4-yl]urea]
1500 nM	61%	CC1(C)C[C@@H](NC(=O)Nc2ccc(F)c3c2C[C@@H](O)C3)c2ccccc2O1 [Example 164, 1-[(4R)-2,2-dimethyl-3,4-dihydro-2H-chromen-4-yl]-3-[(2R)-7-fluoro-2-hydroxy-2,3-dihydro-1H-inden-4-yl]urea]
> 38000 nM	63%	O=C(Nc1cccc2c1CC(O)C2)NC1c2ccccc2CC1Cc1ccc(Cl)c(Cl)c1 (centres unmarked) [Example 124, 1-[2-(3,4-dichlorobenzyl)-2,3-dihydro-1H-inden-1-yl]-3-(2-hydroxy-2,3-dihydro-1H-inden-4-yl)urea]
> 38000 nM	74%	COc1ccc(C2CC(NC(=O)Nc3cccc4c3CC(O)C4)c3ccccc3O2)cc1OC (centres unmarked) [Example 113, 1-[2-(3,4-dimethoxyphenyl)-3,4-dihydro-2H-chromen-4-yl]-3-(2-hydroxy-2,3-dihydro-1H-inden-4-yl)urea]
370 nM	2%	O=C(Nc1ccc(F)c2c1C[C@H](O)C2)N[C@@H]1CC(CF)(CF)Oc2cc(OC(F)(F)F)ccc21 [Example 139, 1-[(4R)-2,2-bis(fluoromethyl)-7-(trifluoromethoxy)-3,4-dihydro-2H-chromen-4-yl]-3-[(2S)-7-fluoro-2-hydroxy-2,3-dihydro-1H-inden-4-yl]urea]
1100 nM	3%	O=C(Nc1ccc(F)c2c1C[C@H](O)C2)N[C@@H]1CC2(CCC2)Oc2ccc(F)cc21 [Example 143, 1-[(4R)-6-fluoro-3,4-dihydrospiro[chromene-2,1′-cyclobutan]-4-yl]-3-[(2S)-7-fluoro-2-hydroxy-2,3-dihydro-1H-inden-4-yl]urea]
31000 nM	95%	C[C@]1(CF)C[C@@H](NC(=O)Nc2ccc3c(c2)C(O)C3)c2ccccc2O1 (stereo partly drawn) [Example 132, 1-[(2R,4R)-2-(fluoromethyl)-2-methyl-3,4-dihydro-2H-chromen-4-yl]-3-(8-hydroxybicyclo[4.2.0]octa-1,3,5-trien-3-yl)urea]
